{"source": "patent US20240025899A1", "about": "“TRIHETEROCYCLIC DERIVATIVE, AND PHARMACEUTICAL COMPOSITION AND APPLICATION THEREOF” (SHANGHAI DE NOVO PHARMATECH CO., LTD., priority 2020, published 2024)", "tested_on": "OCI-LY19 human B-cell lymphoma", "assay": "In vivo drug efficacy, OCI-LY19 human B-cell lymphoma mouse subcutaneous xenograft tumor model", "protocol": "Cell culture: Human B-cell lymphoma OCI-LY19 cells were maintained as a monolayer in MEM-α medium containing 10% fetal bovine serum in a constant temperature incubator at 37° C. with 5% CO2. Tumor cells were subcultured twice a week. Cells in exponential growth phase were harvested and counted for inoculation.\nExperimental animals: BALB/c nude mice, 6-8 weeks old, 19-22 g, purchased from Beijing Vital River Laboratory Animal Technology Co., Ltd.\nFor Vehicle, positive control (AZD6738, CAS number: 1352226-88-0) and compound 2, a total of 6 experimental groups were set up, as shown in Table 5 below:\nExperimental method: The OCI-LY19 cell line (3.0×10^6 cells/mouse) was inoculated subcutaneously on the right back of the experimental mouse, and the inoculation volume of each mouse was 0.1 mL, and the growth of tumors was observed regularly, and until the tumor grew to about 100 mm^3, the mice were randomly divided into groups according to the tumor size and body weight, and administered according to the administration plan shown in Table 5, and the mouse body weight and tumor size were measured twice a week during the whole experiment.\ntumor volume (mm^3)=0.5×(tumor long diameter×tumor short diameter^2). Tumor size calculation formula: […]", "key": {"[1]": {"conditions": "Group 3, 5 mg/kg p.o. once a day"}, "[2]": {"conditions": "Group 4, 10 mg/kg p.o. once a day"}, "[3]": {"conditions": "Group 5, 10 mg/kg p.o. once a day × 4 days on, 3 days off"}, "[4]": {"conditions": "Group 6, 20 mg/kg p.o. once a day × 4 days on, 3 days off"}}, "note": "Structures can show the parent of a compound that is named as a salt.", "data": [{"smiles": "C[C@@H]1COCCN1c1nc2c(cnn2-c2cc[nH]n2)c2c1CCN2S(C)(=O)=O", "note": "[Compound 2, (R)-3-methyl-4-(1-(methylsulfonyl)-6-(1H-pyrazol-3-yl)-1,2,3,6-tetrahydropyrazolo[3,4-b]pyrrolo[2,3-d]pyridin-4-yl)morpholine trifluoroacetate]", "values": [{"measurement": "T/C (%)", "setting": "[1]", "value": 17.9, "unit": "%"}, {"measurement": "TGI (%)", "setting": "[1]", "value": 86.0, "unit": "%"}, {"measurement": "Tumor volume (10 days, mm^3)", "setting": "[1]", "value": "109.41 ± 4.35", "unit": "mm^3"}, {"measurement": "Tumor volume (24 days, mm^3)", "setting": "[1]", "value": "424.51 ± 77.26", "unit": "mm^3"}, {"measurement": "T/C (%)", "setting": "[2]", "value": 8.5, "unit": "%"}, {"measurement": "TGI (%)", "setting": "[2]", "value": 95.9, "unit": "%"}, {"measurement": "Tumor volume (10 days, mm^3)", "setting": "[2]", "value": "109.00 ± 4.19", "unit": "mm^3"}, {"measurement": "Tumor volume (24 days, mm^3)", "setting": "[2]", "value": "202.09 ± 44.85", "unit": "mm^3"}, {"measurement": "T/C (%)", "setting": "[3]", "value": 15.9, "unit": "%"}, {"measurement": "TGI (%)", "setting": "[3]", "value": 88.2, "unit": "%"}, {"measurement": "Tumor volume (10 days, mm^3)", "setting": "[3]", "value": "109.20 ± 3.96", "unit": "mm^3"}, {"measurement": "Tumor volume (24 days, mm^3)", "setting": "[3]", "value": "375.56 ± 92.96", "unit": "mm^3"}, {"measurement": "T/C (%)", "setting": "[4]", "value": 7.9, "unit": "%"}, {"measurement": "TGI (%)", "setting": "[4]", "value": 96.5, "unit": "%"}, {"measurement": "Tumor volume (10 days, mm^3)", "setting": "[4]", "value": "109.24 ± 4.22", "unit": "mm^3"}, {"measurement": "Tumor volume (24 days, mm^3)", "setting": "[4]", "value": "187.91 ± 27.01", "unit": "mm^3"}]}]}
